Test results as given in patent US9783572B2, “Synthesis of syrbactin proteasome inhibitors” (The Regents of the University of California, priority 2009, dated 2017).

Key:
proteasome = assay: Syringolin A treatment of a human neuroblastoma cell line; format: cell-based; conditions: 25 μM
From the text: They are members of a bioactive natural product family and includes the glidobactins/cepafungins now referred to as the syrbactins. Crystallography established that both syringolin A and B form a covalent adduct with the proteasome via conjugate addition of the N-terminal threonine hydroxyl group to their α,β-unsaturated lactams. Given the known properties of proteasome inhibitors, the action of syringolin A in cancer cells was investigated.

[1] = tested on: ubiquitinated proteins (proteasome activity) in REH cells; assay: Western blot with anti-ubiquitin antibody in treated REH cells (FIG. 3); format: cell-based, human; conditions: increasing concentrations
From the text: An antibody against ubiquitin to reveal the presence of ubiquitinated proteins, which accumulate (and present as a smear, due to different molecular weights) in response to the inhibition of proteasome activity. Actin was used as a loading control.

[2] = tested on: RPMI/8226 multiple myeloma cell line; assay: Percent survival of cells, multiple myeloma versus leukemia line (FIG. 2); format: cell-based; conditions: FIG. 2, percent survival
From the text: Bortezomib (BZM), the first proteasome inhibitor to reach the clinic, is being used to treat patients with multiple myeloma and mantle cell lymphoma, and this is reflective of this agent's differential potency in different tumor cell types.

SMILES | accumulation of ubiquitinated proteins (proteasome) | proteasome activity (proteasome) | accumulation of ubiquitinated proteins [1] | cytotoxicity in RPMI/8226 multiple myeloma cells compared with REH acute lymphocytic leukemia cells [2]
CC(C)[C@H](NC(=O)N[C@H](C(=O)N[C@H]1/C=C/CCNC(=O)/C=C/[C@H](C(C)C)NC1=O)C(C)C)C(=O)O [syringolin A] | time-dependent accumulation of ubiquitinated proteins | dose-dependent decrease in proteasome activity |  | 
CC(C)C[C@H](NC(=O)[C@H](Cc1ccccc1)NC(=O)c1cnccn1)B(O)O [BZM, Bortezomib] |  |  | substantial accumulation of ubiquitinated proteins | more cytotoxic to multiple myeloma cells
